The source of these data is PMC11255867 (Protein Science : A Publication of the Protein Society, 2024).

This assay addresses T1, Gaussia luciferase (GLuc) (Gaussia princeps (in: crustaceans), UniProt Q9BLZ2).
T1 sequence (Q9BLZ2 18-185): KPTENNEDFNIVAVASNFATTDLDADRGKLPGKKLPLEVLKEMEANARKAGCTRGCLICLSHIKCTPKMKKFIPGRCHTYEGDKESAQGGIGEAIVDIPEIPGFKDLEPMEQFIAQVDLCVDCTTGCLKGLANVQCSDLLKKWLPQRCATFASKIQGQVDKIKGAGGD
Put plainly: SDS-PAGE adduct formation. In kind it is biochemical. Conditions: suicide inhibitor, covalent; oxidized without light; 20-fold molar excess, up to 24 h; 50 mM Tris-HCl pH 8.0.

Turning to `O=c1c(Cc2ccco2)nc2c(Cc3ccccc3)[nH]c(-c3ccccc3)cn1-2` [furimazine], the “SDS-PAGE adduct formation; loss of luminescence with coelenterazine” value was “FRZ is a suicide inhibitor of GLuc as it does not produce light with GLuc”.
